The results in this text go back to ChEMBL document CHEMBL1126505, “Syntheses of Cyclopentane, Cyclohexene and Olefin Oxazoles as Thromboxane A2/Endoperoxide Receptor Antagonists” (Bioorg Med Chem Lett, 1993).

Assay [1] deals with T1, Thromboxane A2 receptor (Homo sapiens, UniProt P21731).
T1 sequence (P21731 whole entry): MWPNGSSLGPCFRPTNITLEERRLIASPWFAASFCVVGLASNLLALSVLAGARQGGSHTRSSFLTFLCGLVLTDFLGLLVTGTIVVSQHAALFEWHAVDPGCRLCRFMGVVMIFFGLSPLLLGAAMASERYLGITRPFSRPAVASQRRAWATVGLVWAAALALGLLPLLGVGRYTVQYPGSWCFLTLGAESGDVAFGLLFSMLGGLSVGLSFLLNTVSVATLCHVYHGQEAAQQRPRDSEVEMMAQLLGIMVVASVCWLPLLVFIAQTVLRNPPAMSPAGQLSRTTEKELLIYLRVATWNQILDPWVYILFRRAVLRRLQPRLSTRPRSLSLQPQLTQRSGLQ
As to the kind of experiment: Binding affinity was determined for Thromboxane A2 receptor in human platelet membrane using [3H]SQ-29,548 radioligand. The assay is classed as cell membranes.

For assay [2], the species on record is Homo sapiens. As to the kind of experiment: Tested for the ability to inhibit arachidonic acid induced platelet aggregation in human platelet rich plasma. It is filed as functional. To be noted: read-out: I50.

Molecules are shown by their SMILES.

What is called Kd is a measure of binding affinity in units of concentration. In assay [1], `O=C(O)CCc1ccccc1C[C@H]1CCC[C@@H]1c1nc(C(=O)NCc2ccc(Cl)cc2)co1` returned a dissociation constant (Kd) of 0.0033 µM. For the same compound, the IC50 in assay [2] is 5.16 µM.
The corresponding values for `O=C(O)CCc1ccccc1C[C@@H]1CCC[C@@H]1c1nc(C(=O)NCCCCC2CCCCC2)co1` are 0.0238 µM and 0.107 µM.
The corresponding values for `O=C(O)CCc1ccccc1C[C@@H]1CCC[C@H]1c1nc(C(=O)NCc2ccc(Cl)cc2)co1` are 0.0005 µM and 0.338 µM.
The corresponding values for `O=C(O)CCc1ccccc1CC1CCC[C@H]1c1nc(C(=O)NCCCCC2CCCCC2)co1` (single isomer, unassigned; (-)) are 0.0043 µM and 0.015 µM.
In assay [1], `C/C(Cc1ccccc1CCC(=O)O)=C(\C)c1nc(C(=O)NCCc2ccc(Cl)cc2)co1` gave a Kd of 0.0373 µM. Moreover, the IC50 in assay [2] was determined as 0.235 µM.
`O=C(O)CCc1ccccc1CC1=C(c2nc(C(=O)NCCc3ccc(Cl)cc3)co2)CCCC1`: binding in assay [1] was characterised by a dissociation constant (Kd) of 0.0635 µM. Besides, in assay [2], the IC50 worked out at 0.194 µM.
